Assay results published in the NIST ThermoML archive (doi:10.1021/acs.jced.9b00424).

Experiment: xn = mol fraction of the nth substance listed
Conditions: for surface tension liquid-gas: Pendant drop shape; for viscosity: 100 kPa, Concentric cylinders viscometry; for viscosity / mass density: Liquid; for mass density: 101 kPa, Vibrating tube method

CCCCCCCC(=O)O [octanoic acid] + CC(C)[C@@H]1CC[C@@H](C)C[C@H]1O
Conditions | mass density [kg/m3] | surface tension liquid-gas [mN/m] | viscosity [mPa·s]
297.82 K, x2 = 0 | – | 30.95 | –
298 K, x2 = 0.333 | – | 25.72 | –
298.11 K, x2 = 0.5 | – | 26.67 | –
298.15 K, x2 = 0 | 917.2 | – | 5.17
298.15 K, x2 = 0.25 | 914.7 | – | 7.61
298.15 K, x2 = 0.333 | 914.1 | – | 8.81
298.15 K, x2 = 0.5 | 912.3 | – | 12.18
298.15 K, x2 = 0.667 | 910.3 | – | 17.71
298.15 K, x2 = 0.75 | 909.3 | – | 20.82
298.16 K, x2 = 0.25 | – | 23.32 | –
298.2 K, x2 = 0.75 | – | 23.77 | –
298.24 K, x2 = 0.667 | – | 20.94 | –
302.68 K, x2 = 0 | – | 30.04 | –
303.04 K, x2 = 0.5 | – | 25.67 | –
303.15 K, x2 = 0 | 910.3 | – | 4.54
303.15 K, x2 = 0.25 | 908 | – | 6.46
303.15 K, x2 = 0.333 | 907.4 | – | 7.37
303.15 K, x2 = 0.5 | 905.7 | – | 9.83
303.15 K, x2 = 0.667 | 903.7 | – | 13.65
303.15 K, x2 = 0.75 | 902.7 | – | 15.46
303.69 K, x2 = 0.333 | – | 24.84 | –
303.77 K, x2 = 0.667 | – | 20.53 | –
303.85 K, x2 = 0.25 | – | 22.25 | –
303.88 K, x2 = 0.75 | – | 23 | –
307.73 K, x2 = 0.5 | – | 24.67 | –
308.15 K, x2 = 0 | 903.8 | – | 4.01
308.15 K, x2 = 0.25 | 901.7 | – | 5.54
308.15 K, x2 = 0.333 | 901.1 | – | 6.23
308.15 K, x2 = 0.5 | 899.5 | – | 8.06
308.15 K, x2 = 0.667 | 897.6 | – | 10.73
308.15 K, x2 = 0.75 | 896.6 | – | 11.94
308.49 K, x2 = 0 | – | 28.56 | –
308.53 K, x2 = 0.333 | – | 24.25 | –
308.73 K, x2 = 0.25 | – | 21.65 | –
308.75 K, x2 = 0.667 | – | 20.24 | –
308.78 K, x2 = 0.75 | – | 22.27 | –
312.93 K, x2 = 0 | – | 27.56 | –
313.15 K, x2 = 0 | 897.6 | – | 3.59
313.15 K, x2 = 0.25 | 895.6 | – | 4.81
313.15 K, x2 = 0.333 | 895.1 | – | 5.35
313.15 K, x2 = 0.5 | 893.5 | – | 6.72
313.15 K, x2 = 0.667 | 891.7 | – | 8.62
313.15 K, x2 = 0.75 | 890.6 | – | 9.42
313.17 K, x2 = 0.333 | – | 23.9 | –
313.35 K, x2 = 0.5 | – | 23.58 | –
314.11 K, x2 = 0.25 | – | 21.16 | –
314.26 K, x2 = 0.667 | – | 19.94 | –
314.39 K, x2 = 0.75 | – | 21.81 | –
317.8 K, x2 = 0 | – | 26.06 | –
318.12 K, x2 = 0.5 | – | 22.74 | –
318.15 K, x2 = 0 | 891.7 | – | 3.2
318.15 K, x2 = 0.25 | 889.9 | – | 4.18
318.15 K, x2 = 0.333 | 889.4 | – | 4.6
318.15 K, x2 = 0.5 | 887.9 | – | 5.63
318.15 K, x2 = 0.667 | 886.1 | – | 7
318.15 K, x2 = 0.75 | 885 | – | 7.53
318.42 K, x2 = 0.333 | – | 23.36 | –
318.81 K, x2 = 0.667 | – | 19.7 | –
318.88 K, x2 = 0.25 | – | 20.56 | –
318.9 K, x2 = 0.75 | – | 21.15 | –
322.15 K, x2 = 0 | – | 24.99 | –
322.96 K, x2 = 0.333 | – | 22.93 | –
322.97 K, x2 = 0.5 | – | 21.75 | –
323.15 K, x2 = 0 | – | – | 2.88
323.15 K, x2 = 0.25 | – | – | 3.68
323.15 K, x2 = 0.333 | – | – | 4
